Laboratory results published in PubChem BioAssay (NCI).
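The compound was tested at five concentrations on cells cultured in 96-well plates, with a 48-hour exposure period. GI50 is the concentration that inhibits growth by half. TGI marks complete inhibition of growth.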

Experiments:
Assay in all cases: DTP human tumour cell line panel, 48 h
[1] = tested on: HCT-15 colon
[2] = tested on: HT29 colon
[3] = tested on: HL-60(TB) leukemia
[4] = tested on: MDA-MB-468 breast
[5] = tested on: KM12 colon
[6] = tested on: OVCAR-4 ovarian
[7] = tested on: SK-OV-3 ovarian
[8] = tested on: HCC-2998 colon
[9] = tested on: NCI-H226 lung
[10] = tested on: NCI-H23 lung
[11] = tested on: A549 NSCLC
[12] = tested on: HOP-92 NSCLC
[13] = tested on: SF-268 CNS
[14] = tested on: PC-3 prostate
[15] = tested on: SR leukemia
[16] = tested on: HOP-62 NSCLC
[17] = tested on: LOX IMVI melanoma
[18] = tested on: UO-31 renal
[19] = tested on: SK-MEL-28 melanoma
[20] = tested on: NCI-H460 lung
[21] = tested on: OVCAR-8 ovarian
[22] = tested on: CAKI-1 renal
[23] = tested on: BT-549 breast
[24] = tested on: UACC-62 melanoma
[25] = tested on: ACHN renal
[26] = tested on: SNB-19 CNS
[27] = tested on: A498 renal
[28] = tested on: T-47D breast
[29] = tested on: NCI-H522 lung
[30] = tested on: SW-620 colon
[31] = tested on: EKVX NSCLC
[32] = tested on: RXF 393 renal
[33] = tested on: UACC-257 melanoma
[34] = tested on: TK-10 renal
[35] = tested on: OVCAR-3 ovarian
[36] = tested on: MCF7 breast
[37] = tested on: IGROV1 ovarian
[38] = tested on: K-562 leukemia
[39] = tested on: SF-539 CNS
[40] = tested on: SN12C renal
[41] = tested on: COLO 205 colon
[42] = tested on: CCRF-CEM leukemia
[43] = tested on: SNB-75 CNS
[44] = tested on: U251 CNS
[45] = tested on: RPMI-8226 leukemia
[46] = tested on: MOLT-4 leukemia
[47] = tested on: SK-MEL-5 melanoma
[48] = tested on: OVCAR-5 ovarian
[49] = tested on: HCT-116 colon
[50] = tested on: MALME-3M melanoma
[51] = tested on: MDA-MB-231 breast
[52] = tested on: DU-145 prostate
[53] = tested on: SF-295 CNS
[54] = tested on: 786-0 renal

## COc1cccc(C(N)=Nc2ccc(OCCCCCCn3cncn3)cc2)c1
[1]
  GI50: 2.43 µM
  TGI: > 100 µM
[2]
  GI50: 1.23 µM
  TGI: 5.07 µM
[3]
  GI50: 0.567 µM
  TGI: 42.9 µM
[4]
  GI50: 0.429 µM
  TGI: > 100 µM
[5]
  GI50: 1.54 µM
  TGI: > 100 µM
[6]
  GI50: 12.8 µM
  TGI: > 100 µM
[7]
  GI50: 4.69 µM
  TGI: > 100 µM
[8]
  GI50: 2.78 µM
  TGI: > 100 µM
[9]
  GI50: 2.67 µM
  TGI: 9.75 µM
[10]
  GI50: 3.44 µM
  TGI: > 100 µM
[11]
  GI50: 2.86 µM
  TGI: > 100 µM
[12]
  GI50: 4.13 µM
  TGI: > 100 µM
[13]
  GI50: 4.3 µM
  TGI: 86.2 µM
[14]
  GI50: 1.86 µM
  TGI: > 100 µM
[15]
  GI50: 0.537 µM
  TGI: > 100 µM
[16]
  GI50: 4.13 µM
  TGI: > 100 µM
[17]
  GI50: 2.78 µM
  TGI: > 100 µM
[18]
  GI50: 4.51 µM
  TGI: > 100 µM
[19]
  GI50: 4.6 µM
  TGI: > 100 µM
[20]
  GI50: 1.18 µM
  TGI: 22.1 µM
[21]
  GI50: 3.16 µM
  TGI: 28.1 µM
[22]
  GI50: 0.909 µM
  TGI: > 100 µM
[23]
  GI50: 0.957 µM
  TGI: > 100 µM
[24]
  GI50: 2.06 µM
  TGI: > 100 µM
[25]
  GI50: 4.26 µM
  TGI: > 100 µM
[26]
  GI50: 4.45 µM
  TGI: > 100 µM
[27]
  GI50: 26.1 µM
  TGI: > 100 µM
[28]
  GI50: 3.32 µM
  TGI: > 100 µM
[29]
  GI50: 1.08 µM
  TGI: 3.96 µM
[30]
  GI50: 0.537 µM
  TGI: > 100 µM
[31]
  GI50: 2.92 µM
  TGI: > 100 µM
[32]
  GI50: 2.3 µM
  TGI: > 100 µM
[33]
  GI50: 8.67 µM
  TGI: > 100 µM
[34]
  GI50: 6.48 µM
  TGI: > 100 µM
[35]
  GI50: 0.601 µM
  TGI: 3.36 µM
[36]
  GI50: 0.465 µM
  TGI: > 100 µM
[37]
  GI50: 3.53 µM
  TGI: > 100 µM
[38]
  GI50: 0.475 µM
  TGI: > 100 µM
[39]
  GI50: 1.61 µM
  TGI: 4.82 µM
[40]
  GI50: 3.61 µM
  TGI: > 100 µM
[41]
  GI50: 1.75 µM
  TGI: 10.3 µM
[42]
  GI50: 1.04 µM
  TGI: > 100 µM
[43]
  GI50: 1.91 µM
  TGI: > 100 µM
[44]
  GI50: 3.61 µM
  TGI: > 100 µM
[45]
  GI50: 2.82 µM
  TGI: > 100 µM
[46]
  GI50: 3.19 µM
  TGI: > 100 µM
[47]
  GI50: 1.47 µM
  TGI: 10.2 µM
[48]
  GI50: 3.18 µM
  TGI: > 100 µM
[49]
  GI50: 0.439 µM
  TGI: > 100 µM
[50]
  GI50: 1.57 µM
  TGI: > 100 µM
[51]
  GI50: 1.7 µM
  TGI: 57.6 µM
[52]
  GI50: 3.05 µM
  TGI: 51.6 µM
[53]
  GI50: 1.5 µM
  TGI: 30.7 µM
[54]
  GI50: 0.628 µM
  TGI: > 100 µM
